Columns and labels:
[1] = system: rabbit serum obtained by immunizing a rabbit with the SARS-CoV strain Frankfurt 1; type: binding; set-up: Binding of a rabbit serum to linear peptides / Binding of a rabbit serum to looped peptides / Rabbit serum linear peptides / Rabbit serum looped peptides / Binding of a rabbit serum to linear peptides of protein N of SARS-CoV Urbani (Rabbit serum linear peptides) / Binding of a rabbit serum to looped/cyclic peptides of protein N of SARS-CoV Urbani (Rabbit serum looped peptides): unit not given here
[2] = system: antibodies in sera from SARS patients (sera 1a, 1b, 2, 6, 37, 62, London, SARS-yellow, SARS-green); type: binding, human; set-up: Binding of serum 6 to linear peptides of protein X1 of SARS-CoV Urbani / Binding of serum 37 to linear peptides of protein X1 of SARS-CoV Urbani / Binding of serum 6 to looped/cyclic peptide (PEPSCAN-ELISA) / Binding of serum 37 to looped/cyclic peptide (PEPSCAN-ELISA) / Binding of serum 37 to looped/cyclic peptides of protein X1 of SARS-CoV Urbani / Binding of serum 6 to linear peptides of protein X2 / Binding of serum 37 to linear peptides of protein X2 / Binding of serum 37 to looped/cyclic peptides of protein X2 of SARS-CoV Urbani / Binding of serum 6 to linear peptides of protein M of SARS-CoV Urbani / Binding of serum 37 to linear peptides of protein M of SARS-CoV Urbani / Binding of serum 6 to looped/cyclic peptides of protein M of SARS-CoV Urbani / Binding of serum 37 to looped/cyclic peptides of protein M of SARS-CoV Urbani / Binding of serum 6 to linear peptides of protein X3 of SARS-CoV Urbani / Binding of serum 37 to linear peptides of protein X3 of SARS-CoV Urbani / Binding of serum 37 to looped/cyclic peptides of protein X3 of SARS-CoV Urbani / Binding of serum 6 to linear peptides of protein X4 of SARS-CoV Urbani / Binding of serum 37 to linear peptides of protein X4 of SARS-CoV Urbani / Binding of serum 37 to looped/cyclic peptides of protein X4 of SARS-CoV Urbani / Binding of serum 6 to linear peptides of protein X5 of SARS-CoV Urbani / Binding of serum 37 to linear peptides of protein X5 of SARS-CoV Urbani / Binding of serum 37 to looped/cyclic peptides of protein X5 of SARS-CoV Urbani / Binding of serum 6 to linear peptides of protein N of SARS-CoV Urbani / Binding of serum 37 to linear peptides of protein N of SARS-CoV Urbani / Binding of serum 6 to linear peptide (PEPSCAN-ELISA) / Binding of serum 1a to looped/cyclic peptides of protein N of SARS-CoV Urbani / Binding of serum 1b to looped/cyclic peptides of protein N of SARS-CoV Urbani / Binding of serum 2 to looped/cyclic peptides of protein N of SARS-CoV Urbani / Binding of serum 6 to looped/cyclic peptides of protein N of SARS-CoV Urbani / Binding of serum 37 to looped/cyclic peptides of protein N of SARS-CoV Urbani / Binding of serum 62 to looped/cyclic peptides of protein N of SARS-CoV Urbani / Binding of serum London to looped/cyclic peptides of protein N of SARS-CoV Urbani / Binding of serum SARS-green to looped/cyclic peptides of protein N of SARS-CoV Urbani: unit not given here
[3] = system: recombinant human anti-SARS-CoV antibody 03-018; type: binding; set-up: Binding of antibody 03-018 to linear peptides of the N protein of SARS-CoV Urbani / Binding of antibody 03-018 to looped/cyclic peptides of the N protein of SARS-CoV Urbani: unit not given here
[4] = system: control sera (pooled serum of ten healthy LUMC hospital workers; commercial negative donor pooled serum from the Dutch bloodbank); type: binding, human; set-up: Binding of Control serum LUMC to linear peptides / Binding of Control serum Blood-bank to linear peptides / Binding of Control serum LUMC to looped peptides / Binding of Control Serum Blood-Bank to Looped peptides / Binding of Control serum LUMC to linear peptides of the protein M of SARS-CoV Urbani / Binding of Control serum Blood-bank to linear peptides of the protein M of SARS-CoV Urbani / Binding of Control serum LUMC to looped peptides of the protein M of SARS-CoV Urbani / Binding of Control Serum Blood-Bank to Looped peptides of the protein M of SARS-CoV Urbani: unit not given here

Sequence	Binding of a rabbit serum to linear peptides of protein N of SARS-CoV Urbani (Rabbit serum linear peptides) [1]	Binding of a rabbit serum to looped/cyclic peptides of protein N of SARS-CoV Urbani (Rabbit serum looped peptides) [1]	Binding of serum 1a to linear peptides of protein N of SARS-CoV Urbani [2]	Binding of serum 1a to looped/cyclic peptides of protein N of SARS-CoV Urbani [2]	Binding of serum 1b to linear peptides of protein N of SARS-CoV Urbani [2]	Binding of serum 1b to looped/cyclic peptides of protein N of SARS-CoV Urbani [2]	Binding of serum 2 to linear peptides of protein N of SARS-CoV Urbani [2]	Binding of serum 2 to looped/cyclic peptides of protein N of SARS-CoV Urbani [2]	Binding of serum 6 to linear peptides of protein N of SARS-CoV Urbani [2]	Binding of serum 6 to looped/cyclic peptides of protein N of SARS-CoV Urbani [2]	Binding of serum 37 to linear peptides of protein N of SARS-CoV Urbani [2]	Binding of serum 37 to looped/cyclic peptides of protein N of SARS-CoV Urbani [2]	Binding of serum 62 to linear peptides of protein N of SARS-CoV Urbani [2]	Binding of serum 62 to looped/cyclic peptides of protein N of SARS-CoV Urbani [2]	Binding of serum London to linear peptides of protein N of SARS-CoV Urbani [2]	Binding of serum London to looped/cyclic peptides of protein N of SARS-CoV Urbani [2]	Binding of serum SARS-green to linear peptides of protein N of SARS-CoV Urbani [2]	Binding of serum SARS-green to looped/cyclic peptides of protein N of SARS-CoV Urbani [2]	Binding of serum SARS-yellow to linear peptides of protein N of SARS-CoV Urbani [2]	Binding of serum SARS-yellow to looped/cyclic peptides of protein N of SARS-CoV Urbani [2]	further results
GKMKELSPRWYFYYL	0.1	0.7	0.2	0.3	0.1	0.2	0.1	0.5	0.1	0.4	0.5	0.8	0.5	0.8	0.4	0.7	0.2	0.4	0.6	0.6	Binding of antibody 03-018 to linear peptides of the N protein of SARS-CoV Urbani [3]: 0.1; Binding of antibody 03-018 to looped/cyclic peptides of the N protein of SARS-CoV Urbani [3]: 0.3; Binding of Control Serum Blood-Bank to Looped peptides [4]: 0.8; Binding of Control serum Blood-bank to linear peptides [4]: 0.6; Binding of Control serum LUMC to linear peptides [4]: 0.6; Binding of Control serum LUMC to looped peptides [4]: 0.7
GMEVTPSGTWLTYHG	0.1	0.4	0.3	0.4	0.1	0.2	0.1	0.4	0.2	0.3	0.5	0.7	0.6	0.8	0.5	0.5	0.2	0.4	0.7	0.5	Binding of antibody 03-018 to linear peptides of the N protein of SARS-CoV Urbani [3]: 0.1; Binding of antibody 03-018 to looped/cyclic peptides of the N protein of SARS-CoV Urbani [3]: 0.2; Control Serum Blood-Bank Looped peptides [4]: 0.7; Control serum Blood-bank linear peptides [4]: 0.6; Control serum LUMC linear peptides [4]: 0.6; Control serum LUMC looped peptides [4]: 0.7
GMSRIGMEVTPSGTW	0.1	0.4	0.3	0.3	0.1	0.2	0.2	0.3	0.2	0.2	0.7	0.5	0.7	0.5	0.5	0.4	0.5	0.3	0.7	0.5	Binding of antibody 03-018 to linear peptides of the N protein of SARS-CoV Urbani [3]: 0.1; Binding of antibody 03-018 to looped/cyclic peptides of the N protein of SARS-CoV Urbani [3]: 0.2; Control Serum Blood-Bank Looped peptides [4]: 0.6; Control serum Blood-bank linear peptides [4]: 0.6; Control serum LUMC linear peptides [4]: 0.6; Control serum LUMC looped peptides [4]: 0.5
